“Also recorded” adds a separate entry of the source.
What was measured:
[1] = tested on: edema of paw induced by egg albumin in sensitized mice; assay: allergic edema of paw induced by egg albumin, oral pre-treatment; type: in vivo, Swiss mice; conditions: promethazine 30 mg/Kg oral, 1 h before, egg albumin 3 μg/paw
Method: This essay was made in animals previously sensitized through an subcutaneous injection (s.c.) in the dorsal region with 200 μL of a suspension containing 50 μg of egg albumin+5 mg (Al(OH)3) diluted in sterile saline free or pyrogens (200 μL/animal). The edema of paw was induced by an intraplant paw injection of egg albumin (3 μg/paw, no final volume of 50 μL) in one of the back paws, fourteen days after sensitization. The counter-lateral paw received an injection with the same volume of the vehicle (solution saline). The edema was analyzes in a digital plethysmograph, through the displacement of fluid (0.5 g NaCl; 3 mL Extran 100%/1 L) produced by the insertion of the paw in test in the measurement tray. Each analysis was performed 3 times. […]
For evaluation of the anti-allergenic activity of the oil of Carapa guianensis, the dosages of 200 and 400 mg/Kg were tested for mice and 150 and 300 mg/Kg for rats, depending on the model tested. […] The results were expressed as mean and pattern error of the mean and (AND.P.M.), and statistically analyzed through the analysis of the variance (ANOVA), followed by test of multiple comparisons of Newman-Kewls, or T of Student test with a level of significance minor or equal to 0.05 (p≦0.05).

[2] = tested on: edema of paw induced by histamine; assay: edema of paw induced by histamine, oral pre-treatment; type: in vivo, Swiss mice; conditions: mice; promethazine 30 mg/Kg p.o.
Method: The animals were stimulated through interplant injection of stimulus (histamine, bradikinin and PAF—platelet-activating factor) in one of the rear paws with volumes of 50 or 100 μL/paw for mice or rats, respectively. The dosages used were: 100 μg/paw of histamine, 10 nmol/paw of bradykinin and 1 μg/paw of PAF (we notice that only bradykinin was injected in a volume of 50 μL). On the counter-lateral side of the paw the same volume of the vehicle (saline sterile free of pyrogen). Thirty minutes or one hour after the stimulus, the edema was analyzed at the digital plethysmograph, through of displacement of fluid (0.5 g NaCl; 3 mL Extran 100%/1 L) produced by the insertion of each paw in the measurement tray. Each analysis was performed 3 times.
(§1) The treatments with oil or tetranortriterpenoids were performed orally (p.o) 1 hour before the stimulation in conscious animals, kept in a previous fasting of 12 hours with free access to water. The treatment solutions were administered with the help of a curve needle with spherical end, with volumes of 200 μL or 400 μL for mice (of 25 g) or rats (of 200 g). The doses used were 200 or 400 mg/Kg for mice and 150 or 300 mg/Kg for rats. The tetranortriterpenoids were administered in doses of 12.5; 25; 50; 100 and 200 mg/Kg. […]

[3] = tested on: ear edema induced by histamine; assay: edema of ear induced by histamine (Evans blue); type: in vivo, mice; conditions: promethazine 10 mg/Kg p.o.; 30 minutes
Method: The ear edema was induced in anesthetized mice (pentobarbital 40 mg/kg, via intravenous, i.v.) with an intravenous injection (i.v.) in the orbital plexus of Evans blue 1% (25 mg/Kg), 24 hours before the stimulus. […] Thirty minutes after the stimulus, the animals were sacrificed in the chamber of CO2, and their ears were removed and placed in formamide (500 μL/ear) for 24 hours for the extraction of Evans blue. The concentration of Evans blue in the supernatant was analyzed through spectrophotometer (SpectraMax®) at λ 600 nm. The concentration of Evans blue is determined comparing the optical density é (D.O.) of a pattern curve (from 25.6 to 0.2 μg/mL).
as §1

[4] = tested on: pleural exudation induced by histamine; assay: pleurisy induced by histamine, pleural exudation (Evans blue); type: in vivo, Swiss mice; conditions: promethazine 30 mg/Kg p.o.; histamine 100 μg/cavity
Method: The pleurisy was induced through intra-thoracic injection (i.t) of histamine (100 μg/cavity) at the final volume of 100 μL. The control group received 100 μL of vehicle (sterile saline). One hour after the stimulus, the animals were sacrificed in a chamber CO2, their thoracic cavities were exposed and washed with phosphate tampon (PBS) heparinized (20 UI/mL). The pleural cavity of the animals was washed with the help of an automatic pipette, with volumes of 1 and 3 mL for mice and rats, respectively. The pleural wash was collected and centrifuged (740 g, 10 minutes) to remove the cells for posterior evaluation of the proteic exudation, as described as follows. In experiences made with mice, they were previously intravenously injected with Evans blue 1% (25 mg/Kg), at the orbital plexus and the proteic exudation was evaluated through overflow of Evans blue, through spectrophotometer at λ 600 nm. The concentration of Evans blue was determined comparing the optical density (D.O.) of washes with a pattern curve of Evans blue (of 25.6 a 0.2 μg/mL). Results were expressed as μg/mL of Evans blue. For analysis in rats, the exudation of pleural wash was evaluated by the measure of the volume collected from the cavity with the help of a graded syringe and the overflow of proteins was evaluated by the quantification of proteins at the supernatant by the method of Lowry (Lowry et al., 1951). […]

[5] = tested on: hyperalgesia induced by histamine; assay: hyperalgesia induced by histamine (hot plate); type: in vivo, Wistar rats; conditions: promethazine 30 mg/Kg p.o.
Method: (§2) The […] activity was evaluated through an essay of hyperalgesia, performed in a heated plate (Hot Plate, Ugo Basile-Italia model DS-37), with male Wistar rats. The essay is performed through placement of the animals on the hot plate, limited by an acrylic dome of approximately 18 cm in diameter by 40 cm in height.
The induction of a hyperalgesic state was performed through intraplant injection of 100 μg/paw of histamine in Wistar rats in one of the rear paws, at the final volume of 100 μL/paw. In the counter-lateral paw the same volume of vehicle (sterile saline free of pyrogens) was injected. The stimulus was performed in animals non-treated and in animals pre-treated with promethazine (30 mg/Kg, p.o.). Thirty minutes after the stimulus, the animals were placed in a hot plate at 52.5±0.5° C., and two chronometers are set to record the latency of response of withdrawal of each rear paw. Results were expressed in terms of variation of latency of withdrawal of left and right side paws, measured in seconds.
The induction of a hyperalgesic state was performed through intraplant injection of 100 μg/paw of histamine in Wistar rats in one of the rear paws, at a final volume of 100 μL/paw. […] Results were expressed in terms of variation of latency of withdrawal of left and right side paws, measured in seconds.

[6] = tested on: edema of paw induced by PAF; assay: edema of paw induced by platelet activation factor (PAF); type: in vivo, Swiss mice; conditions: WEB 2170 16 mg/Kg oral; PAF 1 μg/paw
Method: Swiss mice were stimulated through intraplant injection of 1 μg/paw of platelet activation factor (PAF) in one of the rear paws at the volume of 50 μL/paw. In the counter-lateral paw the same volume of vehicle injected (sterile saline free of pyrogens). The stimulus was performed in non-treated animals and animals pre-treated with 16 mg/Kg of antagonist to PAF WEB 2170 (p.o., 100 μL). Thirty minutes after the stimulus, the edema was analyzed by the digital plethysmograph, through the displacement of fluid (0.5 g NaCl; 3 mL Extran 100%/1 L) produced by insertion of each paw in the measurement tray. Each analysis was performed 3 times.

[7] = tested on: edema of paw induced by carrageenin; assay: edema of paw induced by carrageenin; type: in vivo, Swiss mice; conditions: diclophenac 100 mg/Kg oral; carrageenin 300 μg/paw
Method: (§3) The animals were stimulated through intraplant injection of stimulus (zimosan or carrageenin) in one of rear paws with the volume of 50 μL/paw. Doses used were: 500 μg/paw of zimosan and 300 μg/paw of carrageenin. In the counter-lateral the same volume of vehicle was injected (sterile saline free of pyrogens). Four hours after the stimulus, the edema was analyzed at the digital plethysmograph, through of displacement of fluid (0.5 g NaCl; 3 mL Extran 100%/1 L) produced by insertion of each paw in the measurement tray. Each Analysis was performed 3 times.

[8] = tested on: edema of paw induced by zimosan; assay: edema of paw induced by zimosan; type: in vivo, Swiss mice; conditions: diclophenac 100 mg/Kg oral; zimosan 500 μg/paw
Method: as §3

[9] = tested on: pleurisis induced by carrageenin; assay: pleurisis induced by carrageenin; type: in vivo, Swiss mice; conditions: diclophenac 100 mg/Kg p.o.; 4 h
Method: Pleurisis was induced through intra-thoracic injection (i.t) of carrageenin (300 μg/cavity) at the final volume of 100 μL (Henriques and col., 1991). The control group received 100 μL of vehicle (sterile saline). Four hours after the stimulus, the animals were sacrificed in of CO2 chamber, their thoracic pleural were exposed and washed with phosphate tampon (PBS) heparinized (20 UI/mL). The pleural cavity of the animals was washed with the help of an automatic pipette, at the volume of 1 mL. The pleural wash was collected and centrifuged (740 g, 10 minutes) to remove cells for posterior evaluation of the proteic exudation, as described as follows. Mice were previously injected intravenously at their orbital plexus with Evans blue 1% (25 mg/Kg), and a proteic exudation was evaluated through of overflowing of Evans blue, through spectrophotometer at λ 600 nm. The concentration of Evans blue was determined comparing the optical density (D.O.) of washes with a pattern curve of Evans blue (of 25.6 a 0.2 μg/mL). Results were expressed as μg/mL of Evans blue. The count of the number of total leucocytes in the pleural wash was made with the help of a Neubauer chamber as of a quota removed from the pleural wash, diluted 40 times in Turk liquid for the lise of erythrocytes. […] Results are expressed as number of cells (×10^6) by cavity.

[10] = tested on: hyperalgesia induced by carrageenin; assay: hyperalgesia induced by carrageenin (hot plate); type: in vivo, Wistar rats; conditions: dipyrone 100 mg/Kg p.o.
Method: as §2
The induction of hyperalgesic state was performed through the intraplant injection of 800 μg/paw of carrageenin in Wistar rats in one of the rear paws, at the final volume of 100 μL/paw. In the counter-lateral paw the same volume of vehicle (sterile saline free of pyrogens) was injected. The stimulus was performed in animals non-treated and in animals pre-treated with dipyrone (100 mg/Kg, p.o.). Three hours after the stimulus, the animals were placed in a hot plate at 52.5±0.5° C., and two chronometers are set to record the latency of response of withdrawal of each rear paw. Results were expressed in terms of variation of latency of withdrawal of left and right side paws, measured in seconds.

[11] = tested on: edema of paw induced by bradykinin; assay: edema of paw induced by bradykinin; type: in vivo, Wistar rats; conditions: HOE 140 10 nmol/paw intraplant
Method: Wistar rats were stimulated through intraplant injection of 10 nmol/paw of bradykinin (BK) in one of the rear paws at the volume of 50 μL/paw (Henriques, 1991). In the counter-lateral paw was injected the same volume of vehicle (sterile saline free of pyrogens). The stimulus was performed in non-treated animals and in animals pre-treated through of an intraplant injection of 10 nmol/paw of antagonist to bradykinin HOE 140 at the volume of 50 μL. Thirty minutes after the stimulus, the edema was analyzed on the digital plethysmograph, through the displacement of fluid (0.5 g NaCl; 3 mL Extran 100%/1 L) produced by insertion of each paw in the measurement tray. Each analysis was performed 3 times.

CC(CN1c2ccccc2Sc2ccccc21)N(C)C (centres unmarked) [promethazine]
allergic edema of paw induced by egg albumin [1]: significantly inhibited; also recorded: inhibition of edema
edema of paw induced by histamine [2]: inhibited
ear edema induced by histamine [3]: able to significantly inhibit the edema induced by histamine
proteic overflow in pleurisis induced by histamine [4]: able to significantly inhibit the proteic overflow induced by histamine
hyperalgesia induced by histamine [5]: inhibition of hyperalgesia

Cc1nnc2n1-c1sc3c(c1C(c1ccccc1Cl)=NC2)CC(C(=O)N1CCOCC1)C3 (centres unmarked) [WEB 2170]
edema of paw induced by PAF [6]: inhibition of edema

O=C([O-])Cc1ccccc1Nc1c(Cl)cccc1Cl.[K+] [diclophenac, diclophenac of potassium]
edema of paw induced by carrageenin [7]: inhibition
edema of paw induced by zimosan [8]: inhibition
proteic overflow induced by carrageenin in pleural cavity [9]: able to significantly inhibit the proteic overflow induced by carrageenin

Cc1c(N(C)CS(=O)(=O)[O-])c(=O)n(-c2ccccc2)n1C.[Na+] [dipyrone]
hyperalgesia induced by carrageenin [10]: inhibition of hyperalgesia

HOE 140
edema of paw induced by bradykinin [11]: inhibition of edema
